Reference: US20210220345A1, “METHODS FOR THE ADMINISTRATION OF COMT INHIBITORS” (Neurocrine Biosciences, Inc., priority 2018, published 2021)

How the values were obtained:
[1] = cited from earlier work
CYP2C8 = target: T1, CYP2C8 (Homo sapiens, UniProt P10632); conditions: statement of the European approved drug label; cited from earlier work
T1 sequence (P10632 1-490): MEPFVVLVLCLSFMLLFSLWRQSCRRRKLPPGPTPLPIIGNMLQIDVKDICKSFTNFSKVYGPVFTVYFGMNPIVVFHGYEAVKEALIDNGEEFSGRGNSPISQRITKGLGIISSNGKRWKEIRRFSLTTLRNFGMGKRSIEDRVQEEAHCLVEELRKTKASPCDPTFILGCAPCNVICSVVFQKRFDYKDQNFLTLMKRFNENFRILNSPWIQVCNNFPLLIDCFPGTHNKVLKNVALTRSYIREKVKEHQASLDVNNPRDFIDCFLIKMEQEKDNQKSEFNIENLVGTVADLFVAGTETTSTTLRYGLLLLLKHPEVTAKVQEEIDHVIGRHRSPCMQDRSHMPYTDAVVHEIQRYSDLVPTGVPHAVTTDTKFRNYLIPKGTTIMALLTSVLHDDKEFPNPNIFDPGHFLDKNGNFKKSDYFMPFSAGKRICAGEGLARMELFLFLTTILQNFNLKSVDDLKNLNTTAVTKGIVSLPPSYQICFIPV

clinical = conditions: human, in vivo
Procedure: This was a Phase 1, open-label, one-sequence crossover, drug-interaction study to evaluate and compare the PK of repaglinide when administered alone and concomitantly with OPC (micronized). Subjects received a single dose of repaglinide 0.5 mg on Days 1 and 15 at approximately 0800 hours. In addition, subjects received OPC 50 mg once daily on Days 2 through 15 at approximately 0800 hours.
Subjects were required to fast overnight from midnight (2400 hours) until 2 hours postdose on Days 1 through 15. Blood samples for pharmacokinetic analysis of OPC and its metabolites and for repaglinide were collected at scheduled times during the study. Safety and tolerability assessments were conducted at scheduled times during the study.
Blood samples to determine repaglinide plasma concentrations were collected on Days 1 and 15 at approximately 30 minutes prior to repaglinide dosing and at 0.25, 0.5, 0.75, 1, 1.5, 2, 3, 4, 5, 6, 8, 10, 12, and 24 hours post-repaglinide dosing.
PK parameters for OPC and its metabolites and repaglinide were calculated using non-compartmental methods.
A statistical assessment of the drug-drug interaction between repaglinide and opicapone is provided below. A repeated measures linear mixed model with fixed effect for treatment and random effect for subject was utilized. An unstructured variance-covariance matrix was assumed for the mixed model analysis. Geometric means (GM), ratios of geometric means (GMR), and their confidence intervals (CI) are shown on the original scale of measurement. Within-Subject CV was calculated as 100*sqrt[(sA2+sC2−2sAC)/2], where sA2 and sC2 are the estimated variances on the log scale for the two treatments, and sAC is the corresponding estimated covariance.

[2] = non-micronized opicapone 25 mg single dose, repaglinide 0.5 mg

Compound	increase in repaglinide AUC0-tlast when taken with opicapone vs. repaglinide alone [1, 2]	increase in repaglinide Cmax when taken with opicapone vs. repaglinide alone [1, 2]	average increase in the rate of exposure to repaglinide when co-administered with opicapone ([1]; opicapone 25 mg, less than optimal formulation, rate but not extent of exposure increased)	inhibition of CYP2C8 (CYP2C8)	Tmax (clinical)	half-life (clinical)	AUC(0-inf) (clinical; AUC0-inf, GM)	AUC(0-t) (clinical; AUC0-t, GM)	Cmax (clinical; Cmax, GM)
Cc1c(Cl)c(C)[n+]([O-])c(Cl)c1-c1noc(-c2cc(O)c(O)c([N+](=O)[O-])c2)n1 [opicapone, 5-[3-(2,5-dichloro-4,6-dimethyl-1-oxy-pyridin-3-yl)-[1,2,4]oxadiazol-5-yl]-3-nitrobenzene-1,2-diol]	9%	31%	30%	weak inhibitor	–	–	–	–	–
CCOc1cc(CC(=O)N[C@@H](CC(C)C)c2ccccc2N2CCCCC2)ccc1C(=O)O [Repaglinide, repaglinide]	–	–	–	–	30 min	38.4 min	11.6 ng·h/mL	10.9 ng·h/mL	10.1 ng/mL
